Laboratory results from patent US7671050B2, “Triazolophthalazines” (NYCOMED GmbH, priority 2005, dated 2010).

How the values were obtained:
HUVEC monolayers = assay: Inhibition of thrombin-stimulated macromolecule (HRP) permeability of HUVEC monolayers; assay type: cell-based, human; conditions: Homo sapiens, 1 h; HUVEC on Transwells, 1 μM RP73401, 10 μM Motapizone, 1 mM SNP or 100 nM ANP, 1 U/ml thrombin, HRP passage after 60 min; read-out: Inhibition of SNP- or ANP-induced permeability, -log IC50 (converted)
Protocol: The procedure to measure macromolecule permeability of endothelial cell monolayers followed the method described by Langeler & van Hinsbergh (1988) with modifications. Human umbilical vein endothelial cells were isolated from umbilical cords according to standard procedures (Jaffe et al. 1973) and cultured in endothelial cell basal medium (EBM) supplemented with 2% FCS, 0.5 ng/ml VEGF, 10 ng/ml bFGF, 5 ng/ml EGF, 20 ng/ml Long R3 IGF-1, 0.2 μg/ml hydrocortisone, 1 μg/ml ascorbic acid, 22.5 μg/ml heparin, 50 μg/ml gentamicin, 50 ng/ml amphotericin B (EGM2 purchased from Promocell GmbH, Heidelberg, Germany). At confluency, cells were trypsinized and replated at 73000 cells per well on 3 μm polycarbonate filter Transwell inserts (Costar GmbH, Bodenheim, Germany) precoated with 10 μg cm^2−1 Fibronectin (Sigma, Taufkirchen, Germany). HUVECs were cultured in EGM2 (100 μl in the upper wells and 600 μl in the lower wells) over four days prior the experiments and medium was changed every other day. At the day of the experiment culture medium was replaced by M199 with 1% human serum albumin. Endothelial cells were preincubated with cyclic nucleotide modifiers (the selective PDE3 inhibitor motapizone, the selective PDE4 inhibitor RP73401, the cGMP generators ANP or SNP and PDE2 inhibitors) for 15 min. HUVECs were then stimulated with Thrombin (1 U ml^−1) (Sigma, Taufkichen, Germany) and horsh radish peroxidase (5 μg/ml) (Sigma, Taufkirchen, Germany) as the macromolecule marker protein was added to the upper wells. Following 1 h incubation time Transwells were removed and the activity of horsh radish peroxidase that penetrated the endothelial cell monolayer was measured in the lower wells with the 3,3′,5,5′-tetramethylbenzidine liquid substrate system from Sigma (Taufkirchen, Germany).
In parallel, compounds according to the invention can inhibit Thrombin-induced permeability of HUVEC monolayers for horsh radish peroxidase (HRP) as a macromolecule marker. […] The concentration-dependent inhibition of HRP permeability at different concentrations was assessed from the percent inhibition in the presence and absence of the PDE2 inhibitors and in the presence of 1 μM RP73401, 10 μM Motapizone and 100 nM ANP.
HUVEC cells on 3 μm polycarbonate filters (Transwells) were preincubated with 1 μM RP73401 (to block PDE4) and 10 μM Motapizone (to block PDE3), 1 mM SNP or 100 nM ANP and test sample over 15 min and then stimulated with 1 U/ml thrombin. HRP passage into the lower wells was assessed after 60 min.

COc1ccc(-c2nnc3c4ccccc4c(Nc4ccc(CC#N)cc4)nn23)cc1 [Example 15, {4-[3-(4-Methoxyphenyl)-[1,2,4]triazolo[3,4-a]phthalazin-6-ylamino]-phenyl}-acetonitrile]
IC50 (HUVEC monolayers): 7.94 to 316 nM
melting point: 295 °C

COc1ccc(-c2nnc3c4ccccc4c(Nc4ccc(N5CCOCC5)cc4)nn23)cc1 [Example 13, [3-(4-Methoxyphenyl)-[1,2,4]triazolo[3,4-a]phthalazin-6-yl]-(4-morpholin-4-yl-phenyl)-amine]
IC50 (HUVEC monolayers): 7.94 to 316 nM
melting point: 314 °C
